Reference: ChEMBL document CHEMBL1143457, “Benzyl ether structure-activity relationships in a series of ketopiperazine-based renin inhibitors” (Bioorg Med Chem Lett, 2005)
Converted amounts (≈) assume the structure as drawn.

Experiments:
[1] = molecular target: T1, Renin (Homo sapiens, UniProt P00797); test: Inhibitory activity against renin in fluorescent tGFP assay
T1 sequence (P00797 whole entry): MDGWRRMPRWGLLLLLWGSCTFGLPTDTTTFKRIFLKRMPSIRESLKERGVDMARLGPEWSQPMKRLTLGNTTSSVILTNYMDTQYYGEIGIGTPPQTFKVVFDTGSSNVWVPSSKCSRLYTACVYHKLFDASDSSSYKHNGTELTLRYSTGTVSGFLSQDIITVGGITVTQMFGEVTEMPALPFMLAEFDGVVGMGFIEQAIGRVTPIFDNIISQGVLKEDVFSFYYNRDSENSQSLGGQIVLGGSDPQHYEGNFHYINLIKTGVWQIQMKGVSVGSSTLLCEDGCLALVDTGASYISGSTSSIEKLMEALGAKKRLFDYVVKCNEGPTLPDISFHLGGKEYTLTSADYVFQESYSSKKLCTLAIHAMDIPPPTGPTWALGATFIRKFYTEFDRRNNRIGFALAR

[2] = Distribution coefficient at PH 7.4 was determined; format: physicochemical; conditions: octanol/water
[3] = Apparent solubility was measured at PH 6.5 by nepholometric method; format: ADME; conditions: buffer
[4] = molecular target: CYP3A4 (Homo sapiens, UniProt P08684); test: Inhibition of CYP3A4 at 3 uM was measured using fluorogenic substrate 7-Benzyloxy-4-(trifluoromethyl)-coumarin; format: ADME; conditions: probe 7-Benzyloxy-4-(trifluoromethyl)-coumarin
CYP3A4, sequence (P08684 whole entry): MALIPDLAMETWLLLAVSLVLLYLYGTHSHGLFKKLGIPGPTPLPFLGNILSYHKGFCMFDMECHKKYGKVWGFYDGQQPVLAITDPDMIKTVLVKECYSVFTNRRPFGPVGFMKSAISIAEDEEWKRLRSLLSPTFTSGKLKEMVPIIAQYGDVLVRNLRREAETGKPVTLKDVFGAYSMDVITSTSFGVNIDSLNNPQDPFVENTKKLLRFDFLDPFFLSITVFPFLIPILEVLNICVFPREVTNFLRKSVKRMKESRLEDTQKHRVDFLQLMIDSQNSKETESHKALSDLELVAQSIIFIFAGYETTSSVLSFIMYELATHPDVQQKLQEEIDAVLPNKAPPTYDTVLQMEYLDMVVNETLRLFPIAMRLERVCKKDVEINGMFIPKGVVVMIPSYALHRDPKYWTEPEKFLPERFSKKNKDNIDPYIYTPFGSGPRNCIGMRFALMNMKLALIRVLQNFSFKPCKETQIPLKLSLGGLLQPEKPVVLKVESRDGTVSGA

Compound | IC50 [1] [nM] | further results
COc1ccccc1COCCCOc1ccc(N2C(=O)CNC[C@@H]2COCc2ccncc2)cc1 | > 1000 | –
COc1ccccc1COCCCOc1ccc(N2C(=O)CNC[C@@H]2COCc2ccccn2)cc1 | > 1000 | –
COc1ccccc1COCCCOc1ccc(N2C(=O)CNC[C@@H]2COCc2cccc(OC(F)(F)F)c2)cc1 | 410 | –
COc1ccccc1COCCCOc1ccc(N2C(=O)CNC[C@@H]2COCc2cccc(Cl)c2)cc1 | 330 | –
COc1ccccc1COCCCOc1ccc(N2C(=O)CNC[C@@H]2COCc2ccc(F)cc2Cl)cc1 | 410 | –
COc1ccccc1COCCCOc1ccc(N2C(=O)CNC[C@@H]2COCc2cc(F)cc(F)c2)cc1 | 1600 | –
COc1cccc(COC[C@H]2CNCC(=O)N2c2ccc(OCCCOCc3ccccc3OC)cc2)c1 | 600 | –
COc1ccccc1COCCCOc1ccc(N2C(=O)CNC[C@H]2COCc2ccc(Cl)c(C(F)(F)F)c2)cc1 | 594 | –
COc1ccccc1COCCCOc1ccc(N2C(=O)CNC[C@H]2COCc2cccnc2)cc1 | > 10000 | –
COc1ccccc1COCCCOc1ccc(N2C(=O)CNC[C@@H]2COCc2ccc(Cl)cc2)cc1 | 300 | –
COc1ccccc1COCCCOc1ccc(N2C(=O)CNC[C@@H]2COCc2ccc(C(F)(F)F)cc2)cc1 | 6800 | –
COc1ccccc1COCCCOc1ccc(N2C(=O)CNC[C@@H]2COCc2ccccc2OC)cc1 | 900 | –
COc1ccccc1COCCCOc1ccc(N2C(=O)CNC[C@@H]2COCc2cccc(C#N)c2)cc1 | 1200 | –

Now those with a lower IC50 [1], led by results:

IC50 [1] [nM] | Compound | further results
270 | COc1ccccc1COCCCOc1ccc(N2C(=O)CNC[C@@H]2COCc2cccc(C(F)(F)F)c2F)cc1 | –
0.4 | COc1ccccc1COCCCOc1ccc(N2C(=O)CNC[C@@H]2COc2ccc3c(c2)N(CCNC(C)=O)CCC3)cc1 | –
270 | COc1ccccc1COCCCOc1ccc(N2C(=O)CNC[C@@H]2COCc2ccc(F)c(C)c2)cc1 | –
120 | COc1ccccc1COCCCOc1ccc(N2C(=O)CNC[C@@H]2COCc2ccc(Cl)c(C(F)(F)F)c2)cc1 | logD [2]: 3.7; solubility kinetic [3]: 3 µg/mL (≈ 5.06 µM); inhibition at 3 µM [4]: 97%
230 | COc1ccccc1COCCCOc1ccc(N2C(=O)CNC[C@@H]2COCc2ccccc2F)cc1 | –
230 | COc1ccccc1COCCCOc1ccc(N2C(=O)CNC[C@@H]2COCc2cccc(C(F)(F)F)c2)cc1 | –
120 | COc1ccccc1COCCCOc1ccc(N2C(=O)CNC[C@@H]2COCc2cccnc2)cc1 | logD [2]: 2.9; solubility kinetic [3]: 100 µg/mL (≈ 203 µM); inhibition at 3 µM [4]: 44%
270 | COc1ccccc1COCCCOc1ccc(N2C(=O)CNC[C@@H]2COCc2ccccc2C(F)(F)F)cc1 | –
260 | COc1ccccc1COCCCOc1ccc(N2C(=O)CNC[C@@H]2COCc2ccc(C)c(Cl)c2)cc1 | –
250 | COc1ccccc1COCCCOc1ccc(N2C(=O)CNC[C@@H]2COCc2ccc(F)c(F)c2)cc1 | –
180 | COc1ccccc1COCCCOc1ccc(N2C(=O)CNC[C@@H]2COCc2cc(Cl)cc(Cl)c2)cc1 | –
140 | COc1ccccc1COCCCOc1ccc(N2C(=O)CNC[C@@H]2COCc2ccc(F)c(C(F)(F)F)c2)cc1 | logD [2]: 3.7; solubility kinetic [3]: 7 µg/mL (≈ 12.1 µM); inhibition at 3 µM [4]: 87%
